Measurements reported in PMC5431889, “Stapled BIG3 helical peptide ERAP potentiates anti-tumour activity for breast cancer therapeutics” (Scientific Reports, 2017).
Each block holds one molecule with its values, some of them ahead of it. Where a SMILES comes first, the peptide text is derived from it.

Tests used:
MCF-7 cells [1] = assay: Cell cycle assay by flow cytometry (propidium iodide); type: cell-based, human; details: 10 nM E2, 10 μM stERAP-6, 1 μM tamoxifen
Protocol: Cells were fixed in cold 70% ethanol, incubated with 20 µg mL^−1 propidium iodide (Sigma) and 1 mg mL^−1 ribonuclease A (Sigma), and analysed by flow cytometry using a FACSCalibur with CellQuest software (BD).

MCF-7 cells [2] = type: cell-based, human; details: 96 h
From the text: After […] ERAP). Microarray analysis. […]

[3] = Circular dichroism, α-helical content; type: physicochemical; details: CD 185-265 nm, 25 °C, 50 μg mL−1 in 10 mM sodium phosphate buffer pH 7.0
Protocol: CD spectrum in the range of 185 to 265 nm was recorded at 25 °C in a 2 mm-path quartz cuvette. Protein concentration was 50 μg mL^−1 in 10 mM sodium phosphate buffer (pH 7.0). Molar ellipticity [θ] was calculated.

[4] = test system: KPL-3C orthotropic breast cancer xenografts; assay: In vivo tumour growth inhibition, KPL-3C orthotopic xenografts; parameters: species or system mice; details: intraperitoneal, E2 6 μg per day, n = 5
Protocol: KPL-3C cell suspensions (1 × 10^7 cells per mouse) were mixed with an equal volume of Matrigel (Corning) and injected (200 μL total) into the mammary fat pads of 6-week-old female BALB/c nude mice (Charles River Laboratories). The mice were housed in a pathogen-free isolation facility with a 12 h light/dark cycle and were fed rodent chow and water ad libitum. The tumours developed over a period of a few days, reaching sizes of approximately 100 mm^3 [calculated as 1/2 × (width × length^2)], upon injection of 6 μg per day of E2 solution to the neck skin. For intraperitoneal administration, the mice were randomized into 10 treatment groups (five animals per group): (1) no treatment; (2) 6 μg per day E2; (3) E2 + 1.4 mg kg^−1 day^−1 ERAP daily; (4) E2 + 1.4 mg kg^−1 day^−1 ERAP every 4 days; (5) E2 + 14 mg kg^−1 day^−1 ERAP daily; (6) E2 + 14 mg kg^−1 day^−1 ERAP every 4 days; (7) E2 + 1.4 mg kg^−1 day^−1 stERAP-6 daily; (8) E2 + 1.4 mg kg^−1 day^−1 stERAP-6 every 4 days; (9) E2 + 14 mg kg^−1 day^−1 stERAP-6 daily; and 10() E2 + 14 mg kg^−1 day^−1 stERAP-6 every 4 days. For intravenous administration, the mice were randomized into 10 treatment groups (five animals per group): (1) no treatment; (2) 6 μg per day E2; (3) E2 + 0.1 mg kg^−1 day^−1 stERAP-6 daily; (4) E2 + 1 mg kg^−1 day^−1 stERAP-6 daily; (5) E2 + 10 mg kg^−1 day^−1 stERAP-6 daily; (6) E2 + 0.1 mg kg^−1 day^−1 stERAP-6 weekly; (7) E2 + 1 mg kg^−1 day^−1 stERAP-6 weekly; (8) E2 + 10 mg kg^−1 day^−1 stERAP-6 weekly; (9) E2 + 1 mg kg^−1 day^−1 alanine-mutant stERAP-6 daily; and (10) E2 + 10 mg kg^−1 day^−1 alanine-mutant stERAP-6 daily. E2 was delivered via the application of a solution to the neck skin as previously noted.
The tumour volume was measured with calipers, after which time the mice were sacrificed and tumours excised. TGI was calculated according to the formula: [1 − (T − T0)/(C − C0)] × 100, where T and T0 are the mean tumour volumes at day 28 or 35 and day 1, respectively, for the experimental group, and C and C0 are those for the E2-treated group. The organs (heart, lung, liver, kidney, pancreas, and brain) were also immediately removed. A portion of each tissue was fixed in 10% neutral formalin for histological examination, while the remaining tissue sample was frozen and preserved at −80 °C for subsequent western blot analysis. All the experiments were performed in accordance with the guidelines of the animal care and use facility at Tokushima University.

TAM-R MCF-7 cells = assay: MTT assay, tamoxifen-resistant (TAM-R) MCF-7 cell growth; type: cell-based, human; details: 10 nM E2 and 1 μM tamoxifen, single treatment at 0 h, up to 96 h; three independent experiments
[5] = test system: BIG3-PHB2 complex and ERα signalling in tumours; assay: Co-immunoprecipitation, RT-PCR and immunoblot analysis of excised KPL-3C tumours; type: in vivo, mice
Protocol: Immunoblot analyses were performed as described previously. After SDS-PAGE, the membranes were blocked with 4% BlockAce solution (Dainippon Pharmaceutical) for 3 h and then incubated with antibodies against the following proteins: BIG3 (1:1,000)[10]; PHB2 (1:1,000, Abcam); Akt (1:1,000), phospho-Akt (S473) (587F11, 1:1,000); p44/42 MAPK (1:1,000), phospho-p44/42 MAPK (T202/Y204) (1:1,000); mTOR (1:1,000); phospho-mTOR (S2448) (1:1,000); S6K (1:1,000); phopho-S6K (T389) (1:1,000); α/β-tubulin (1:1,000) (Cell Signalling Technology); and LMNB1 (1:100, Sigma). After incubation with an HRP-conjugated secondary antibody (anti-mouse IgG-HRP, 1:5,000; anti-rat IgG-HRP; 1:5,000; or anti-rabbit IgG-HRP, 1:1,000; Santa Cruz Biotechnology) for 1 h, the blots were developed with an enhanced chemiluminescence (ECL) system (GE Healthcare) and scanned using an Image Reader LAS-3000 mini (Fujifilm). All the experiments were performed in triplicate at a minimum. Full-length images of immunoblots are shown in Supplementary Fig. S5. […]
The expression of the ERα target genes (TFF1 and CCND1) was evaluated by real-time RT-PCR as described previously. Each sample was normalized to the β 2-MG mRNA content, and the results were expressed as the fold increase over untreated cells (set at 1.0). […]
The tumour volume was measured with calipers, after which time the mice were sacrificed and tumours excised. […]

MCF-7 cells [6] = details: E2-dependent breast cancer cell growth; cited from earlier work
Protocol: We previously developed a dominant-negative peptide, ER α activity-regulator synthetic peptide (ERAP), which specifically disrupts the BIG3-PHB2 interaction and inhibits multiple ERα-signalling pathways driving breast cancer cell growth by reactivating tumour-suppressive activity of PHB2[10]. […] However, its inhibitory effect was only maintained for 24 h, most likely due to its high susceptibility to proteolytic degradation.

prohibitin 2 = prohibitin 2 (human (endogenous in MCF-7 and KPL-3C), UniProt Q99623 1-299); assay: cell-based or functional assay
[7] = biological target: T1, His-tagged recombinant PHB2 (UniProt Q99623 1-299); assay: SPR; Biacore 3000; recombinant PHB2 bound to a CM5 sensor chip, peptides as analytes at the indicated concentrations; BIAevaluation software; details: both partners purified
T1 construct: PHB2 (prohibitin 2), recombinant, His-tagged; also called His-PHB2; source: recombinant
T1 sequence (Q99623 whole entry): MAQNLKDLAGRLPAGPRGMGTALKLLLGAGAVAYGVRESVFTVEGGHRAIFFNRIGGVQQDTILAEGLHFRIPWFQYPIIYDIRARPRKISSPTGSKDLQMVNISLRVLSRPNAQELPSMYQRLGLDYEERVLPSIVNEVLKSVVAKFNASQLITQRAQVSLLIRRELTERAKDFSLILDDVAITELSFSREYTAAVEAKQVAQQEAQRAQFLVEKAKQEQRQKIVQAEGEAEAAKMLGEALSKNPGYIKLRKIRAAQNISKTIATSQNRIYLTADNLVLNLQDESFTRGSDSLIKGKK

prohibitin 2, sequence (Q99623 whole entry): as above

Molecule: CC/C(=C(\c1ccccc1)c1ccc(OCCN(C)C)cc1)c1ccccc1 [tamoxifen]
apoptotic (sub-G1) cell population (MCF-7 cells [1]): 7.44%

IC50 (MCF-7 cells [2]): 7.97 µM | α-helical content [3]: 21.4%
Molecule: CSCC[C@H](NC(=O)[C@H](CCC(N)=O)NC(=O)CNC(=O)CNC(=O)CNC(=O)[C@H](CCCNC(=N)N)NC(=O)[C@H](CCCNC(=N)N)NC(=O)[C@H](CCCNC(=N)N)NC(=O)[C@H](CCCNC(=N)N)NC(=O)[C@H](CCCNC(=N)N)NC(=O)[C@H](CCCNC(=N)N)NC(=O)[C@H](CCCNC(=N)N)NC(=O)[C@H](CCCNC(=N)N)NC(=O)[C@H](CCCNC(=N)N)NC(=O)[C@H](CCCNC(=N)N)NC(=O)[C@@H](N)CCCNC(=N)N)C(=O)N[C@@H](CC(C)C)C(=O)N[C@@H](CO)C(=O)N[C@@H](CC(=O)O)C(=O)N[C@@H](CC(C)C)C(=O)N[C@H](C(=O)N[C@@H](CC(C)C)C(=O)N[C@@H](CCC(N)=O)C(=O)N[C@@H](CC(C)C)C(=O)N[C@@H](CCCNC(=N)N)C(=O)N[C@@H](CCC(N)=O)C(=O)N[C@@H](CCCNC(=N)N)C(=O)O)[C@@H](C)O [ERAP] (H-RRRRRRRRRRRGGGQMLSDLTLQLRQR-OH; N-terminus and C-terminus assumed)
TGI on day 28 ([4]; 1.4 mg kg−1 every 4 days): 36.9% | TGI on day 28 ([4]; 1.4 mg kg−1 once a day for 28 days): 94.2% | TGI on day 28 ([4]; 14 mg kg−1 every 4 days): 40.3% | TGI on day 28 ([4]; 14 mg kg−1 once a day for 28 days): 94.5% | inhibition of growth of TAM-R MCF-7 cells (TAM-R MCF-7 cells): reduced after 24 h treatment | E2-induced expression of TFF1 and CCND1 and phosphorylation levels of Akt and MAPK in tumours ([5]; intraperitoneal treatment every 4 days for 28 days): did not | inhibition of endogenous BIG3-PHB2 complex formation in tumours ([5]; intraperitoneal treatment every 4 days, co-immunoprecipitation): but not with unstapled original ERAP | duration of inhibitory effect (MCF-7 cells [6]): 24 h

IC50 of E2-dependent MCF-7 cell growth at 96 h after a single treatment (MTT); the peptide blocks BIG3-PHB2 (prohibitin 2): 7.97 µM | Kd [7]: 12.8 µM
B1: ERα activity-regulator synthetic peptide (native ERAP; 11R-GGG-QMLSDLTLQLRQR) (peptide)
peptide: RRRRRRRRRRRGGGQMLSDLTLQLRQR
notes: membrane-permeable polyarginine (11R) and GGG linker, printed as 11R-GGG; also called unstapled original ERAP; dominant-negative peptide; source: synthetic peptide
